Laboratory results taken from a melting point compilation (Tetko et al.; mined from patent text by program, amines drawn as free bases though some values may be those of a salt).

Row | SMILES | melting point
1 | COc1sc(-c2csc(C(N)=O)n2)c(Cl)c1C | 201 to 203 °C
2 | CCOC(=O)Cc1ccc(NC(=O)C(COc2ccccc2Cl)NS(=O)(=O)c2ccc(I)cc2)cc1 (racemic) | 140 to 142 °C
3 | O=C(c1c(F)cccc1F)N1CSCN(c2ccc(Cl)cc2)C1=O | 128 to 130 °C
4 | O=S(=O)(c1ccccc1)c1c[nH]c2ccc(N3CCN(Cc4ccccc4)CC3)nc12 | 238 to 239 °C
5 | CCN(CC)CCCOc1ccc(-c2cc3ccccc3o2)cc1 | 86 to 88 °C
6 | Cc1ccc2c(c1)CCC1=C2CCC(=O)N1C | 122 °C
7 | CCOC(=O)C1CC(=O)c2c(OC)ccc(OC)c2C1 (configuration not stated) | 96 to 98 °C
8 | OC1c2ccc(Cl)cc2OCc2cccnc21 (configuration not stated) | 105 to 108 °C
9 | Cc1cc(Cc2cnc(NCCCN(Cc3ccccc3)c3ccccn3)[nH]c2=O)cnc1C | 95 to 99 °C
10 | O=c1[nH]ncc2cc(/C=C\c3ccc(O)cc3)ccc12 | 210 °C
11 | CCOC(=O)C1=C(CC)NC(CC)=C(C(=O)OCC)C1c1ccccc1/C=C/C(=O)OC(C)(C)C | 154 to 155 °C
12 | C#Cc1cccc(Nc2ncnc3ccc(S(=O)(=O)n4ccc(C=CC(=O)NOC5CCCCO5)c4)cc23)c1 (configuration not stated) | 152 to 155 °C
13 | FC(F)(F)c1ccc(-c2cc(Cl)c3ccccc3n2)cc1 | 53 to 55 °C
14 | CCNc1nc(CC)c(C(=O)c2ccc(Cl)c([N+](=O)[O-])c2)s1 | 149 to 152 °C
15 | COc1cc(COc2nn(-c3ccccc3)cc2/C=C/C#N)ccc1OCc1nc(-c2ccccc2)oc1C | 184 to 185 °C
16 | O=C(NCc1ccccc1)C1C=Nc2ccccc2S1 (configuration not stated) | 160 to 162 °C
17 | COc1cc(C)c2c(c1)-c1c([nH]c3ccccc13)C2 | 208 °C
18 | CCCCN(CC1Cc2cc(Cl)cc(Cl)c2O1)C(=O)n1cncn1 (configuration not stated) | 122 to 124 °C
19 | C[C@]12CC[C@@H]3c4ccc(OCC(=O)O)cc4CC[C@H]3[C@@H]1CCC2=O | 205 to 208 °C
20 | Cc1ccc(S(=O)(=O)N2C(C)CN3C(=O)c4ccccc4C32c2ccc(F)cc2)cc1 (configuration not stated) | 215 to 217 °C
21 | CC(C)C1(C)N=C(c2ccc(O)cn2)NC1=O (configuration not stated) | 252 to 254 °C
22 | C[Si](C)(C)CCOCn1ccc2c(=O)[nH]ncc21 | 147 to 148 °C
23 | N#Cc1ccc(N(CCCCOc2ccc(OS(N)(=O)=O)cc2)n2cnnc2)cc1 | 164 to 172 °C
24 | O=c1ncc(F)cn1COCc1ccc(Cl)cc1 | 103 °C
25 | Clc1ccc2c(c1)CCC(c1ccccc1)S2 (configuration not stated) | 91 to 93 °C
26 | CCCCc1ncc(/C=C(\Cc2cccs2)C(=O)O)n1Cc1ccc(CC(=O)O)cc1 | 169 to 171 °C

Row | SMILES | melting point
27 | Cc1nnc(-c2ccc3occ(-c4cccc(Cl)c4)c3c2)o1 | 145 to 146 °C
28 | CC1(C)Cc2cccc(Oc3ccc(NC(=O)NC(=O)c4c(F)cccc4F)cc3Cl)c2O1 | 171 °C
29 | CC1=C(C(=O)OCC2CC2)C(c2ccccc2C(F)(F)F)c2c(ccnc2OC(C)C)N1 (configuration not stated) | 112 to 114 °C
30 | CCn1c(=O)c2[nH]c(/C=C/c3ccc(OC)c(F)c3)nc2n(CC)c1=O | > 270 °C
31 | O=C(O)c1ccc(NCc2ccc(F)cc2)cn1 | 197 to 200 °C
32 | Cc1sc(-c2ccccc2)nc1CCOc1ccc(C[C@@H](C(=O)O)n2cccc2)cc1 | 157 to 158 °C
33 | CCCCCCCCCCCCCOc1ccc(C(C)=O)o1 | 61 to 62 °C
34 | CC1CC(=O)C=C2CCC3C4CCC(=O)C4(C)CCC3C21C (configuration not stated) | 154 °C
35 | CCOC(=O)c1cn(C2CC2)c2cc(F)c(F)c(C)c2c1=O | 185 to 187 °C
36 | Cc1cccc2c(Cl)c(CCCl)nnc12 | 102 to 104 °C
37 | CN(C(=O)CCS(C)=O)c1nnc(-c2cccnc2)s1 (configuration not stated) | 138 to 140 °C
38 | O=C(O)c1ccc(CNc2nc(-c3cccnc3)nc3ccccc23)cc1 | 285 to 294 °C
39 | N#CC(C#N)=C1N(CCCN2CCCCC2)CCN1C1CCN(C(=O)C2CC2)CC1 | 131 to 133 °C
40 | CCP(CC)c1ccc(Cl)cc1 | 77 to 79 °C
41 | COC(=O)CCCCNC(=O)[C@H](Cc1ccccc1)NC(=O)OC(C)(C)C | 98 to 100 °C
42 | CCNC(=N)NC(=O)Cc1ccccc1OC | 127 to 128 °C
43 | Cn1cc(-c2cc(-c3c[nH]nc3-c3ccccn3)ccc2F)cn1 | 134 to 136 °C
44 | Nc1sc2c(c1C(=O)c1ccc3ccccc3c1)CCN(Cc1ccccc1)C2 | 174 to 177 °C
45 | NS(=O)(=O)c1ccc(-c2cc(F)c(F)cc2-c2ccc3c(c2)OCCO3)cc1 | 107 to 108 °C
46 | Cn1ccnc1Sc1ccc(Nc2c(C#N)cnc3cc(-c4ccc(C(=O)N5CCOCC5)cc4)ccc23)cc1Cl | 98 to 101 °C
47 | O=C(O)c1ccc2c(c1)C=CC(=CCl)CO2 | > 260 °C
48 | CCc1nc2c(N)nc3ccccc3c2n1CC1(O)CCS(=O)(=O)CC1 | > 250 °C
49 | CC(=O)C1C(=O)N(CC2CC2)C(=O)N(c2ccccc2)C1=O (configuration not stated) | 91 to 95 °C
50 | Cc1ccc(S(=O)(=O)N2CCCN(c3cccc(C)c3C)CC2)cc1 | 86.2 °C
51 | Cc1oc(-c2ccccc2)nc1C(O)COc1ccc(C=C2SC(=S)NC2=O)nc1 (configuration not stated) | 218 °C
52 | CCCNS(=O)(=O)c1cccc(C)c1C#N | 74 to 77 °C

Row | SMILES | melting point
53 | CC1(C)Sc2ccccc2C(Cl)=C1C=O | 49 to 52 °C
54 | CCS(=O)(=O)c1nnc(N(C(C)=O)C(=O)N(C)C)s1 | 145 °C
55 | CSC(=S)C1(c2cccc(C)n2)SCCCS1 | 92 °C
56 | CC(=O)Nc1ccc(F)cc1S(=O)(=O)CC#N | 154 to 157 °C
57 | CCOC(=O)c1cc(-c2ccc(OCCO[Si](C)(C)C(C)(C)C)cc2)n(-c2ccc(OC)cc2)n1 | 86 to 87 °C
58 | COC(CCc1ccc(Cl)cc1Cl)(Cn1cncn1)C(C)(C)C1OCCCO1 (configuration not stated) | 130 to 132 °C
59 | CC(=O)c1cc([N+](=O)[O-])c(F)cc1Cl | 66 to 68 °C
60 | CC(Oc1ccc(Oc2ncc(C(F)(F)F)cc2F)cc1)C(=O)Nc1ccc(C(F)(F)F)cc1 (configuration not stated) | 127 to 128 °C
61 | O=C(NC12CC3CC(CC(C3)C1)C2)c1nc(Br)n(-c2ccccc2)c1Br | 228 to 231 °C
62 | CN1Cc2cc(Cl)ccc2C(=O)c2cc(CC(=O)O)ccc21 | 191 to 194 °C
63 | CCOC(=O)c1cc(C#N)c(C=O)nc1N1CCCCC1 | 62 to 64 °C
64 | Cc1cc(C2=NN=C(C=O)Cc3cc4c(cc32)OCO4)ccc1[N+](=O)[O-] | 188 to 191 °C
65 | N#Cc1ccc2c(c1)C(=O)N1CCC[C@@H]1CO2 | 164 to 165 °C
66 | CCCOCCOc1ccccc1-c1ccc2c(c1)C=C(C(=O)Nc1ccc(CN(C)C3CCOCC3)cc1)CCS2(=O)=O | 164 to 166 °C
67 | CC(=N)Nc1cccc(C#N)c1 | 228 to 230 °C
68 | CCN1CCCCC1CNS(=O)(=O)c1ccc(Nc2ccnc3cc(Cl)ccc23)cc1 (configuration not stated) | 203 to 205 °C
69 | CCCCNC(=O)ONC(=O)Cc1ccc2c(C(=O)OCC)c(N)c(C(=O)OCC)c-2cc1 | 178 to 179 °C
70 | Clc1ccc2c(c1)[nH]c1cc(Cl)ccc12 | 188 to 189 °C
71 | Nc1ccc(Sc2ccccc2)cc1Cl | 59 to 60 °C
72 | Cn1c(-c2ccccc2)cc2onc(-c3ccccc3)c2c1=O | 145 to 148 °C
73 | CCCC(=O)c1cnc2c(OCC)nccc2c1Nc1ccccc1C | 112 °C
74 | COC1=C(OC)C(=O)C2=C(CC(CCCCCCCCOC(C)=O)C2)C1=O | 47 to 48 °C
75 | c1csc(-c2ccc(-c3cccs3)c3nsnc23)c1 | 121 to 122 °C
76 | O=Cc1nn(-c2ccccc2)c2c1CCCC2 | 60 °C
77 | CSc1ccc(-c2csc3ccc(-c4nnc(C)o4)cc23)cc1 | 198 to 199 °C
78 | CS(=O)c1ccc(C2=C(c3cccc(F)c3)C(=O)C(C)(C)O2)cc1 (configuration not stated) | 143 to 144 °C

Row | SMILES | melting point
79 | N#Cc1ccc(-c2n[nH]c3c2Cc2ccccc2-3)cc1 | 245 °C
80 | CCOC(=O)c1cn(Cc2ccccc2)c2cc(C(C)C)nn2c1=O | 135 to 140 °C
81 | Cc1ccc(Cc2cnc(CCCSCc3cc(CN(C)C)ccn3)[nH]c2=O)cn1 | 110 to 112 °C
82 | Cc1cccc(C)c1Nc1c(-c2c(Cl)cccc2OCC(N)=O)nc2ccc(F)cn12 | 186 to 187 °C
83 | O=c1c2ccccc2nc(CCl)n1-c1ccccc1 | 152 to 153 °C
84 | CC(C)c1nc(CCCO)n(CCO)c1Sc1cc(Cl)cc(Cl)c1 | 155 to 163 °C
85 | CC(C)(C)OC(=O)[C@H]1C[C@H](S(=O)(=O)c2ccccc2)[C@@H](c2ccccc2)N1C(=O)CNC(=O)Nc1cccc(C(=O)O)c1 (racemic) | 213 °C
86 | Clc1ccc2[nH]c(Cc3ccccc3)c(C3=NCCN3)c2c1 | 299 to 300 °C
87 | N#Cc1cccc(CC(NC(=O)c2cc3cc(Cl)ccc3[nH]2)C(=O)N2CCSC2)c1 (configuration not stated) | 183 to 184 °C
88 | Cn1c(CC#N)ccc1C(=O)c1ccc(N)cc1 | 137 to 142 °C
89 | CCN1CCC(C(=O)NO)(S(=O)(=O)c2ccc(OC)cc2)CC1 | 85 °C
90 | COC(=O)C(C#N)(CCCN(C)CCc1ccc(OC)c(OC)c1)c1ccc(OC)c(OC)c1 (configuration not stated) | 129 to 130 °C
91 | CCC1(CCCCN2CCN(c3ccccn3)CC2)C(=O)Nc2ccc(Cl)cc21 (configuration not stated) | 154 to 156 °C
92 | O=C(NCC(=O)c1ccco1)c1ccccc1 | 132 to 133 °C
93 | O=C(NC1CN2CCC1CC2)c1cccc2oc(-c3ccc(F)cc3)nc12 (configuration not stated) | 208 to 209 °C
94 | CCCN(CCC)C(=O)C1CSc2ccc(N)cc21 (configuration not stated) | 100 °C
95 | COc1ccc(NC(=O)Nc2ccccc2)cc1NC(=S)Nc1cc(Cl)cc(Cl)c1 | 218 to 219 °C
96 | N#Cc1nn(-c2c(Cl)cc(C(F)(F)F)cc2Cl)c(N)c1C1=CCCCC1 | 175 to 177 °C
97 | c1cc2c(cc1CSc1nnc(-c3ccc4c(c3)CCO4)o1)CCO2 | 130 to 132 °C
98 | Cc1cc(=O)[nH]c2ccc(OCCCN3CCN(Cc4ccc(F)cc4)CC3)cc12 | 178 to 180 °C
99 | CC(C)(C)c1ccc(C[C@@H](NC(=O)c2cccc3c(F)cccc23)[C@@H](O)c2ccc(F)cc2)cc1 (racemic) | 148 to 149 °C
100 | Cc1ccc2c(c1)C(=O)c1cccn1-2 | 85 °C
101 | CCOC(=O)c1ccc(N(C)C)cc1C(=O)OCC | 62 to 64 °C
102 | COCC(OC(C)=O)C1CC(O)C2(C)CCC3C(CCC4=CC(=O)C=C(C)C43C)C12 (configuration not stated) | 203 to 204 °C
